Two compounds from patent US10519148B2, “Acrylic acid derivative, preparation method and use in medicine thereof” (Zhejiang Hisun Pharmaceutical Co., Ltd., priority 2015, dated 2019) can be followed below.

Test [1] concerns the target T1, recombinant human estrogen receptor ERα ligand binding domain (Homo sapiens, UniProt P03372).
T1 construct: purchased Invitrogen PV4543
T1 sequence (P03372 311-547 limits assumed): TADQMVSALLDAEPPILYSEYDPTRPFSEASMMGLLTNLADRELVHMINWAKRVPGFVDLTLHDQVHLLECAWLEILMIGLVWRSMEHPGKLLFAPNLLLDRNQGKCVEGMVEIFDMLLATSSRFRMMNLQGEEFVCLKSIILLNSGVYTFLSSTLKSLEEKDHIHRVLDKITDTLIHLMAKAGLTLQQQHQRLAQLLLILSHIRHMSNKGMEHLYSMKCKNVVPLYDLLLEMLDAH
Briefly: LanthaScreen TR-FRET competition binding assay with estrogen receptor ERα ligand binding domain. Conditions: TR-FRET competition with Fluormone ES2, ERα-LBD (GST); read-out: IC50 (nM) ER Reporter. The text has this: The present invention utilizes the Lantha Screen™ Time-resolved Fluorescence Resonance Energy Transfer (TR-FRET) to assess the ability of the compounds to bind to the isolated ligand domain of estrogen receptor Era in competition assay. The fluorophore (Fluormone ES2, product code P2645) and the recombinant human estrogen receptor ERα ligand binding domain (product code PV4543) using in the TR-FRET were purchased from Invitrogen. The design principle of this assay is as follows: the estrogen receptor ERα-LBD (GST) and the fluorophore-containing ligand form a receptor/fluorophore complex, followed by the addition of terbium (Tb)-labeled anti-GST antibody (product code PV3551), the indirect labeling of the receptor is achieved by the linkage with the GST on the receptor, and the ability of competitive coordination between the test compound and the fluorescent ligand with the receptor is evaluated by detecting the attenuation of the TR-FRET effect between the chromophore (Tb-anti-GST antibody) on the fluorescent label ERα and the fluorescent ligand (Fluormone ES2). We used the following sample preparation and test methods for the test of the synthesized compounds. The instrument we used is Beckman Coulter BioPAPTR FRD microfluidic workstation.
(1) Acoustic dispense 120 nL of the test compound into a black low volume 384 well assay plates;
(2) Preparation of 1×ERα-LBD/Tb-anti-GST antibody complex in ES2 buffer and incubation therein for 20 minutes;
(3) The 1×ES2 was further added to the above ERα-LBD/Tb-anti-GST antibody complex solution before the test;
(4) 12 μL of the ERα-LBD/Tb-anti-GST antibody complex solution prepared in step 3 was added to the wells of the assay plate;
(5) The plates were shielded from light and incubated at room temperature for one hour; (6) At 337 nm excitation light, the emission light at 490 nm and 520 nm was detected by BMG Phera STAR.
The test compounds of a series of concentrations (10 mM, 0.1 mM, 1 μM and 10 nM) prepared on a microplate were transferred to the analytical plate using Labcyte Echo 550. 120 nL of DMSO solution for each test compound was added to each well of the assay plate and tested at 12 different concentrations (100, 29.17, 10.42, 2.083, 1, 0.292, 0.104, 0.02083, 0.01, 0.0029, 0.00104, 0.001 μM). The TR-FRET primitive fluorescence data was used to obtain the fitting curve software such as Origin or Genedata. Half maximal inhibitory concentration IC50 of each compound was used to characterize the competitive binding ability of the test compound with the estrogen receptor ERα. IC50 represents the concentration of the test compound that was calculated when the coordination of the tracer fluorophore (ES2) with the estrogen receptor was reduced by 50%, and the IC50 was determined as shown in Table 3.
(Time-resolved FRET reads energy transfer from a long-lived donor to a nearby acceptor.)

In test [2] the test system is MCF-7 carcinoma xenografts. Briefly: Tumor growth inhibition in SCID mice bearing MCF-7 carcinoma xenografts. It is filed as in vivo. To be noted: for TGI (%) Day 4: Day 4, MCF-7 tumor bearing SCID mice; for TGI (%) Day 7: Day 7, MCF-7 tumor bearing SCID mice; for TGI (%) Day 11: Day 11, MCF-7 tumor bearing SCID mice; for TGI (%) Day 14: Day 14, MCF-7 tumor bearing SCID mice; for TGI (%) Day 18: Day 18, MCF-7 tumor bearing SCID mice; for TGI (%) Day 21: Day 21, MCF-7 tumor bearing SCID mice; for effect on tumor growth inhibition in human breast cancer MCF-7 bearing mice (in words): doses of 30 mg/kg and 50 mg/kg, within 21 days. As to the method: 1. Purpose of the Experiment
This test was used to evaluate the inhibitory effect of the test compounds, which were orally administered daily for 21 days, on the growth of transplanted tumor in MCF-7 tumor-bearing SCID mice.
2. Preparation of the Test Substance
Solvent: 20% PEG400, 80% deionized water;
Preparation of the test compounds: an appropriate amount of the test compounds were weighed, dissolved in PEG400 (20%), and then 80% amount of the sterilized deionized water was added, shocked evenly. The test compounds were freshly prepared daily before administration.
Varieties and strains: SCID mice, SPF, female, 7 to 9 weeks old (16 to 22 grams), 100 mice, purchased from Beijing Huafu kang Biotechnology Co., Ltd., 100 mice with good health were used for the experiment, with the environment adaption time of 5 to 7 days.
4. MCF-7 Tumor Cell Culture
MCF-7 cells were cultured in RPMI1640 medium containing 10% fetal bovine serum, cultured in 37° C., 5% CO2 incubator. Cells in logarithmic phase were taken before inoculating, digested with 0.25% trypsin, and then the cells were washed with PBS, resuspended in medium without serum and counted. The cell concentration was adjusted to 7.5×10^7 cells/mL (1:1 Matrigel, Extracellular Matrix Proteins, 356234, BD).
5. Animal Inoculation and Grouping
Each mouse was inoculated subcutaneously in the right axilla with 0.2 mL cell suspension (1.5×10^7 cells/mouse) under aseptic conditions. Estrogen was administrated subcutaneously after inoculation. When the tumor grows to volume of about 150-250 mm^3, the mice with similar tumor volume and good tumor shape were selected (shape to be a single spherical as much as possible, no irregular shape or multiple tumors together), 10 mice per group.
6. Animal Administration and Observation
The formation of tumor in the inoculated part of each group of animals was observed. The long diameter (Y) and the short diameter (X) of the tumor nodules were measured with a vernier caliper twice a week and calculated according to the following formula: The volume of tumor nodules (V): V=(X^2Y)/2.
Evaluation index of antitumor activity: tumor growth inhibition rate TGI (%), relative tumor proliferation rate T/C (%). • Tumor growth inhibition rate TGI (%): TGI (%)=(Vc−Vt)/Vc×100. Where Vc is the tumor volume of the model control group and Vt is the tumor volume of the compound group.
Relative tumor volume (RTV): RTV=Vn/V0. Where V0 is the tumor volume just before the first time administered, and Vn is the tumor volume at the time of measurement.
Relative tumor proliferation rate: T/C (%): T/C (%)=TRTV/CRTV×100. Where, TRTV was RTV of the treatment group and CRTV was RTV of negative control group.

As a reminder, the IC50 is the concentration that inhibits the measured activity by half. With `C[C@@H]1Cc2c([nH]c3ccccc23)[C@@H](c2c(F)cc(/C=C/C(=O)O)cc2F)N1CC1(F)CC1` [Example 1, (E)-3-(3,5-difluoro-4-((1R,3R)-2-((1-fluorocyclopropyl)methyl)-3-methyl-2,3,4,9-tetrahydro-1H-pyrido[3,4-b]indol-1-yl)phenyl)acrylic acid], in test [1], the concentration for half-maximal inhibition (IC50) fell in the range of 0.1 to 10 nM. Also, in test [2] (30 mg/kg po qd), the “TGI (%) Day 4” value is on record as 12.3%, the “TGI (%) Day 7” value amounted to 24.4%, the “TGI (%) Day 11” value is on record as 34.5% and the “TGI (%) Day 14” value was determined as 52.7%. Moreover, in test [2] (30 mg/kg po qd), the “TGI (%) Day 18” value is 65.7% and the “TGI (%) Day 21” value worked out at 76.7%. In test [2] (50 mg/kg po qd), the “TGI (%) Day 4” value turned out to be 16.9%, the “TGI (%) Day 7” value stood at 26.5%, the “TGI (%) Day 11” value was found to be 38.8% and the “TGI (%) Day 14” value was 54.2%. In test [2] (50 mg/kg po qd), the “TGI (%) Day 18” value was determined as 66.9% and the “TGI (%) Day 21” value was determined as 78.8%. In addition, the “effect on tumor growth inhibition in human breast cancer MCF-7 bearing mice (in words)” value in test [2] is recorded as “significant effect on tumor growth inhibition”.

For `C[C@@H]1Cc2c([nH]c3cccc(F)c23)[C@@H](c2c(F)cc(/C=C/C(=O)O)cc2F)N1CC1(F)CC1` [Example 12, (E)-3-(3,5-difluoro-4-((1R,3R)-5-fluoro-2-((1-fluorocyclopropyl)methyl)-3-methyl-2,3,4,9-tetrahydro-1H-pyrido[3,4-b]indol-1-yl)phenyl)acrylic acid], the IC50 in test [1] fell in the range of 0.1 to 10 nM. In test [2] (30 mg/kg po qd), the “TGI (%) Day 4” value was found to be 12.1%, the “TGI (%) Day 7” value is 25.9%, the “TGI (%) Day 11” value was determined as 41.5% and the “TGI (%) Day 14” value amounted to 53.6%. Further, in test [2] (30 mg/kg po qd), the “TGI (%) Day 18” value is 62.0% and the “TGI (%) Day 21” value is listed as 73.4%. In addition, in test [2] (50 mg/kg po qd), the “TGI (%) Day 4” value worked out at 12.4%, the “TGI (%) Day 7” value is recorded as 25.4%, the “TGI (%) Day 11” value is 43.8% and the “TGI (%) Day 14” value was 59.6%. For the same compound, in test [2] (50 mg/kg po qd), the “TGI (%) Day 18” value is reported as 69.8% and the “TGI (%) Day 21” value is listed as 79.4%. Moreover, the “effect on tumor growth inhibition in human breast cancer MCF-7 bearing mice (in words)” value in test [2] is reported as “significant effect on tumor growth inhibition”.
